Source: PubChem BioAssay AID1963836 (Molecular Pharmacology Branch, DTP, NCI, 2024)

Tested on: 857933-349-R-J2-PDC complex spheroid viability
Experiment: Anticancer human tumor 857933-349-R-J2-PDC patient-derived colon adenocarcinoma cell line growth inhibition [POLQ]
Settings: for IC50: curve of first compound; for viability, T/C: stronger effect = lower value
Experimental: Multicellular complex tumor spheroid response to Polymerase (POL) inhibitors (novobiocin, ART-558, RP6685) in combination with a variety of drugs and investigational agents in selected tumor cell lines
The POL inhibitors (novobiocin, ART-558, and RP6685) were evaluated both individually and in combination with standard of care and investigational anticancer small molecules within a complex spheroid model of solid tumors. . Complex spheroids include a stromal component modeled by human endothelial cells (HUVEC) and fibroblasts modeled by human mesenchymal stem cells (MSCs). The concentration ranges selected for each drug and investigational agent were based upon clinically achievable concentrations if the clinical Cmax of the agent was known.
Compounds. The drugs and investigational agents: novobiocin (NSC847541), ART-558 (NSC835418), RP-6685 (NSC848927), peposertib (NSC802822), ceralasertib (NSC780249), elimusertib (NSC800525), camonsertib (NSC841442), AZD-1390 (NSC803789), olaparib (NSC753686), talazoparib (NSC767125), rucaparib (NSC756644), sotorasib (NSC818433), MRTX-1133 (NSC836407), SN-38 (NSC673596), topotecan (NSC609699), epotoside (NSC141540), doxorubicin (NSC123127), gemcitabine (NSC613327), 5-fluorouracil (NSC19893), paclitaxel (NSC125973), vemurafenib (NSC761431), MSA-2 (NSC828583), SN-011 (NSC837082), adavosertib (NSC754352), prexasertib (NSC758257), carboplatin (NSC241240) and oxaliplatin (NSC266046), were obtained from the National Cancer Institute (NCI) Developmental Therapeutics Program Chemical Repository (21). The FDA-approved anticancer drug set is available from the Developmental Therapeutics Program at https://dtp.cancer.gov/organization/dscb/obtaining/. […] The stock solutions were prepared in dimethyl sulfoxide (DMSO, Sigma-Aldrich, St. Louis, MO, cat. D2650), except for the platinum compounds which were prepared in saline (Quality Biological, Gaithersburg, MD, cat. 114-055-101), at 800-fold the tested concentration and stored at -70 degrees C prior to their use. All drugs and investigational agents were tested over a range starting from a high concentration at or near the clinical Cmax and decreasing in half-log increments. If the clinical Cmax for an agent had not been determined, the highest concentration tested was 10 microM, except for SN-38, which was tested at a high concentration of 1 microM.
Cell Culture. All cells were maintained in an incubator at 37 degrees C and 5% CO2 with 95% humidity. The PDC lines were cultured according to standard operating procedures established by the NCI PDMR (https://pdmr.cancer.gov). Table 3 of the manuscript, lists the cell lines along with the number of the three cell types plated to form the mct-spheroids and media for tumor cell growth. After thawing, all PDC lines, except 997537-175-T-J1-PDC and 415267-285-R-J2-PDC, were cultured in Matrigel-coated flasks prepared with a working solution of 1X Ham's F-12 nutrient mix, without supplementation (Thermo Fisher Scientific, cat. 11765054), 100 U/mL penicillin-streptomycin (Thermo Fisher Scientific, cat. 15140122), and 2.5% Matrigel (Corning Inc., Corning, NY, cat. 354248) for the first three passages. The two PDC lines 997537-175-T-J1-PDC and 415267-285-R-J2-PDC were cultured on uncoated flasks. The 857933-349-R-J2-PDC line was cultured in 6C/Colon 1B media containing advanced DMEM/F-12 (Thermo Fisher Scientific, cat. 12634028), 10 mM HEPES (Thermo Fisher Scientific, cat. 15630080), 1X GlutaMAX supplement (Thermo Fisher Scientific, cat. 35050061), 0.1 mg/mL primocin (InvivoGen, San Diego, CA, cat. ant-pm-2), 10% defined fetal bovine serum, heat inactivated (HyClone Laboratories Inc., Logan, UT, cat. SH30070.03HI), 50% L-WRN conditioned media (ATCC, cat. CRL-3276), 1.25 mM N-Acetyl-L-cysteine (Sigma-Aldrich, cat. A9165), 10 mM nicotinamide (Sigma-Aldrich, cat. N0636), 1X B-27 supplement (Thermo Fisher Scientific, cat. 17504044), 1X N-2 supplement (Thermo Fisher Scientific, cat. […]

[1] = second compound 0.0316 µM, first compound 0.0316 µM
[2] = second compound 0.0316 µM, first compound 0.1 µM
[3] = second compound 0.0316 µM, first compound 0.316 µM
[4] = second compound 0.0316 µM, first compound 1 µM
[5] = second compound 0.1 µM, first compound 0.0316 µM
[6] = second compound 0.1 µM, first compound 0.1 µM
[7] = second compound 0.1 µM, first compound 0.316 µM
[8] = second compound 0.1 µM, first compound 1 µM
[9] = second compound 0.316 µM, first compound 0.0316 µM
[10] = second compound 0.316 µM, first compound 0.1 µM
[11] = second compound 0.316 µM, first compound 0.316 µM
[12] = second compound 0.316 µM, first compound 1 µM
[13] = second compound 1 µM, first compound 0.0316 µM
[14] = second compound 1 µM, first compound 0.1 µM
[15] = second compound 1 µM, first compound 0.316 µM
[16] = second compound 1 µM, first compound 1 µM
[17] = second compound 3.16 µM, first compound 0.0316 µM
[18] = second compound 3.16 µM, first compound 0.1 µM
[19] = second compound 3.16 µM, first compound 0.316 µM
[20] = second compound 3.16 µM, first compound 1 µM
[21] = second compound 10 µM, first compound 0.0316 µM
[22] = second compound 10 µM, first compound 0.1 µM
[23] = second compound 10 µM, first compound 0.316 µM
[24] = second compound 10 µM, first compound 1 µM
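Also: spheroids exposed to compounds for seven days before readout.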

In the case of `COc1cccc(OCCCN)c1-c1cc(Nc2cnc(C#N)cn2)n[nH]1` + Cc1cccc(N(C)C(=O)C2C(O)CCN2c2nc(C)cc(C(F)(F)F)c2C#N)c1, the IC50 (second compound 0.0316 µM) is reported as 763 nM, the IC50 (second compound 0.1 µM) is reported as greater than 1000 nM and the IC50 (second compound 0.316 µM) is reported as greater than 1000 nM. It also gave an IC50 (second compound 1 µM) greater than 1000 nM, an IC50 (second compound 3.16 µM) of 511 nM and an IC50 (second compound 10 µM) greater than 1000 nM. It also gave a viability, T/C (second compound 0.0316 µM, first compound 0.00316 µM) of 96.2%, a viability, T/C (second compound 0.0316 µM, first compound 0.01 µM) of 94.5% and a viability, T/C [1] of 97%. It also gave a viability, T/C [2] of 86.9%, a viability, T/C [3] of 64.6% and a viability, T/C [4] of 45.5%. The viability, T/C (second compound 0.1 µM, first compound 0.00316 µM) was 105%, the viability, T/C (second compound 0.1 µM, first compound 0.01 µM) was 84.2% and the viability, T/C [5] was 89.2%. It also gave a viability, T/C [6] of 73%, a viability, T/C [7] of 66.3% and a viability, T/C [8] of 50.7%. The viability, T/C (second compound 0.316 µM, first compound 0.00316 µM) was 102%, the viability, T/C (second compound 0.316 µM, first compound 0.01 µM) was 99.8% and the viability, T/C [9] was 90.9%. The viability, T/C [10] was 56.8%, the viability, T/C [11] was 61% and the viability, T/C [12] was 55.5%. The viability, T/C (second compound 1 µM, first compound 0.00316 µM) was 110%, the viability, T/C (second compound 1 µM, first compound 0.01 µM) was 96.3% and the viability, T/C [13] was 85.6%. For the same molecule, the viability, T/C [14] was 83%, the viability, T/C [15] was 56.4% and the viability, T/C [16] was 52.9%. It also gave a viability, T/C (second compound 3.16 µM, first compound 0.00316 µM) of 98.7%, a viability, T/C (second compound 3.16 µM, first compound 0.01 µM) of 110% and a viability, T/C [17] of 81.8%. It also gave a viability, T/C [18] of 69.6%, a viability, T/C [19] of 59.9% and a viability, T/C [20] of 40.7%. It also gave a viability, T/C (second compound 10 µM, first compound 0.00316 µM) of 90.8%, a viability, T/C (second compound 10 µM, first compound 0.01 µM) of 86.5% and a viability, T/C [21] of 77.4%. The viability, T/C [22] was 67.9%, the viability, T/C [23] was 61.2% and the viability, T/C [24] was 52.5%.

In the case of `Nc1ccn(C2OC(CO)C(O)C2(F)F)c(=O)n1` (centres undefined) + Cc1cccc(N(C)C(=O)C2C(O)CCN2c2nc(C)cc(C(F)(F)F)c2C#N)c1, the IC50 (second compound 0.0316 µM) is reported as 169 nM, the IC50 (second compound 0.1 µM) is reported as 175 nM and the IC50 (second compound 0.316 µM) is reported as 117 nM. For the same molecule, the IC50 (second compound 1 µM) was 141 nM, the IC50 (second compound 3.16 µM) was 146 nM and the IC50 (second compound 10 µM) was 126 nM. The viability, T/C [1] was 81.5%, the viability, T/C [2] was 62.4% and the viability, T/C [3] was 35.5%. It also gave a viability, T/C [4] of 15.5%, a viability, T/C (second compound 0.0316 µM, first compound 3.16 µM) of 13.2% and a viability, T/C (second compound 0.0316 µM, first compound 10 µM) of 11.9%. It also gave a viability, T/C [5] of 82.9%, a viability, T/C [6] of 68.2% and a viability, T/C [7] of 30.5%. It also gave a viability, T/C [8] of 15.2%, a viability, T/C (second compound 0.1 µM, first compound 3.16 µM) of 12.4% and a viability, T/C (second compound 0.1 µM, first compound 10 µM) of 7.96%. The viability, T/C [9] was 73.8%, the viability, T/C [10] was 54% and the viability, T/C [11] was 26.5%. The viability, T/C [12] was 15.5%, the viability, T/C (second compound 0.316 µM, first compound 3.16 µM) was 13.2% and the viability, T/C (second compound 0.316 µM, first compound 10 µM) was 10.8%. It also gave a viability, T/C [13] of 78.3%, a viability, T/C [14] of 61.4% and a viability, T/C [15] of 23.1%. For the same molecule, the viability, T/C [16] was 18.2%, the viability, T/C (second compound 1 µM, first compound 3.16 µM) was 12.1% and the viability, T/C (second compound 1 µM, first compound 10 µM) was 10%. The viability, T/C [17] was 65.2%, the viability, T/C [18] was 60% and the viability, T/C [19] was 30.7%. For the same molecule, the viability, T/C [20] was 15.7%, the viability, T/C (second compound 3.16 µM, first compound 3.16 µM) was 10.1% and the viability, T/C (second compound 3.16 µM, first compound 10 µM) was 10.3%. For the same molecule, the viability, T/C [21] was 80.6%, the viability, T/C [22] was 53.7% and the viability, T/C [23] was 33.6%. For the same molecule, the viability, T/C [24] was 17.4%, the viability, T/C (second compound 10 µM, first compound 3.16 µM) was 12.2% and the viability, T/C (second compound 10 µM, first compound 10 µM) was 11.4%.
